Read-outs that look alike come from different tables or passages of the source.
Legend:
[1] = system: bladder detrusor smooth muscle; assay: first in vitro test: relaxation of guinea pig bladder detrusor strips contracted with 15 mM KCl; format: cell-based, Male albino Hartley guinea pigs; conditions: for relaxation and reduction of the myogenic activity of guinea pig detrusor strips: first test, calcium channel blockers; for IC50: Cavia porcellus
Protocol: Male albino Hartley guinea pigs (450-500 g) are sacrificed by carbon dioxide induced asphyxiation and quickly exsanguinated. The lower abdominal cavity is opened and the urinary bladder isolated. […] The solution is warmed to 37° C. and gassed with 95% O2 and 5% CO2. With vigorous bubbling, the solution should have a pH value close to 7.4.
The dome of the washed bladder is cut off and discarded; the remaining bladder is placed on a gauze in a Petri dish containing the buffer solution. A mid-ventral longitudinal cut is made with scissors to open the bladder. The strips cut from the dome and the base edge are discarded. The remaining detrusor mid-section is cut into two horizontal strips with an approximate width of 2.0 mm. These two strips are further bisected at the mid-dorsal section, creating four strip of similar dimensions. Each strip thus contains both dorsal and ventral portions of the bladder.
The two ends of each individual strip are tied to a glass support rod and a force-displacement transducer (Grass model FR03), respectively, with 4-0 black braided silk suture.
The transducers are connected to a polygraph (Grass model 7E), which is calibrated at 5 mV/cm and the calibration checked for linearity with weights of 5 and 0.5 grams. The analog electrical output signals from the polygraph are digitized by a Modular Instrument Micro 5000 signal processing system using Biowindow Data Acquisition Software, which is run under the Microsoft OS/2 operating system with an IBM-compatible PC.
The detrusor strips on the glass rod are secured in 20 ml tissue baths and allowed to equilibrate under a preload tension of 2 grams. During the following 45 to 60 min equilibration period, the tissue is washed with fresh buffer solution at 15 min interval, with the tension adjusted, if necessary, to 2 grams prior to washing. After the equilibration period, a priming dose of 15 mM KCl (total concentration in the bath) is applied. The tissue is washed after 10 min and washed twice more at 15 min intervals with tension adjusted to 2 grams before each washing.
When the tissue relaxes to a steady state after the final washing, 15 mM KCl is again applied. Once the myogenic activity of the tissue reaches a steady state, the baseline data are acquired through the Biowindows Data Acquisition System by averaging 5 min of the myogenic data sampled at 32 Hz. Once the baseline is acquired, the experimental compounds are dosed in a cumulative manner in half log unit increments. The contact time for each dose is 10 min with the final 5 min being the period of time that the dose reponse data are required. […] The effect of the compound at each dose is expressed as % of the maximum inhibitory response, which is further normalized with respect to the corresponding effect of the compound vehicle control. The normalized response is then used to derive the IC50 of the relaxant activity of the compound through the application of Marquardt' s nonlinear iterative curve fitting technique to a standard dose-response function.

[2] = system: detrusor smooth muscle; assay: second in vitro test: relaxation of guinea pig detrusor strips contracted with 80 mM KCl; format: cell-based; conditions: for potency in the second test relative to the first test: 80 mM KCl vs 15 mM KCl; for relaxation and reduction of the myogenic activity of guinea pig detrusor strips: second test, calcium channel blockers
Protocol: This second in vitro test is similar to the one described above with regard to tissue preparation and data acquisition. However, the following exceptions are noted. In this second test, the contraction of the detrusor strips during priming and after the equilibration period is achieved with 80 mM instead of 15 mM KCl (total concentration in the bath).

[3] = ability to relax bladder smooth muscle, comparison with non-fluorinated analogs, read-out: IC50

| SMILES | relaxation and reduction of the myogenic activity of guinea pig detrusor strips ([2]; 80 mM KCl) | IC50 [1, 3] [nM] | also measured |
| --- | --- | --- | --- |
| COc1ccc(CCN(C)CCCC(C#N)(c2ccc(OC)c(OC)c2)C(C)C)cc1OC (stereo not drawn) [verapamil] | able to relax and reduce the myogenic activity | – | relaxation and reduction of the myogenic activity of guinea pig detrusor strips [1]: able to relax and reduce the myogenic activity; potency in the second test relative to the first test [2]: more potent in the second test |
| O=[N+]([O-])c1ccc2c(c1)N(c1cccc[n+]1[O-])CC(C(F)F)(C(F)F)O2 [Example 8, 2-(2,2-bis(Difluoromethyl)-6-nitro-3,4-dihydro-2H-1,4-benzoxazine-4-yl)pyridine-N-oxide] | – | 7 | – |
| O=S(=O)(c1ccccc1)c1ccc2c(c1)N(c1cccc[n+]1[O-])CC(C(F)F)(C(F)F)O2 [Example 6, 2-(2,2-bis(Difluoromethyl)-6-phenylsulfonyl-3,4-dihydro-2H-1,4-benzoxazine-4-yl)pyridine-N-oxide] | – | 360 | – |
| COc1ccc(Cc2nccc3cc(OC)c(OC)cc23)cc1OC [papaverine] | – | – | abolition of the KCl-induced tension ([2]; 80 mM KCl, 300 μM, maximum response): totally abolished |
| COCCOC(=O)C1=C(C)NC(C)=C(C(=O)OC(C)C)C1c1cccc([N+](=O)[O-])c1 (stereo not drawn) [nimodipine] | able to relax and reduce the myogenic activity | – | relaxation and reduction of the myogenic activity of guinea pig detrusor strips [1]: able to relax and reduce the myogenic activity; potency in the second test relative to the first test [2]: more potent in the second test |
| COC(=O)C1=C(C)NC(C)=C(C(=O)OC)C1c1ccccc1[N+](=O)[O-] [nifedipine] | able to relax and reduce the myogenic activity | – | – |
| O=S(=O)(c1ccccc1)c1ccc2c(c1)N(c1cccc[n+]1[O-])CC(CF)(CF)O2 [Example 5, 2-(2,2-(bis)Fluoromethyl-6-phenylsulfonyl-3,4-dihydro-2H-1,4-benzoxazine-4-yl)pyridine-N-oxide] | – | 2250 | – |
| COC(=O)C1=C(C)NC(C)=C(C(=O)OC(C)C)C1c1cccc2nonc12 (stereo not drawn) [isradipine] | able to relax and reduce the myogenic activity | – | relaxation and reduction of the myogenic activity of guinea pig detrusor strips [1]: able to relax and reduce the myogenic activity; potency in the second test relative to the first test [2]: more potent in the second test |
| O=[N+]([O-])c1ccc2c(c1)N(c1cccc[n+]1[O-])CC(CF)(CF)O2 [Example 4, 2-(2,2-(bis)Fluoromethyl-6-nitro-3,4-dihydro-2-H-1,4-benzoxazine-4-yl)pyridine-N-oxide] | – | 25 | – |
| CC1(C(F)(F)F)CN(c2cccc[n+]2[O-])c2cc(S(=O)(=O)c3ccccc3)ccc2O1 (stereo not drawn) [Example 1, 2-(2-Methyl-2-trifluoromethyl-6-phenylsulfonyl-3,4-dihydro-2H-1,4-benzoxazin-4-yl)pyridine-N-oxide] | – | 540 | IC50 ([1]; guinea pig detrusor strips, read-out: IC50 (50% decrease in the in vitro contraction of the bladder tissue)): 540 nM |
| CC1(C)CN(c2cccc[n+]2[O-])c2cc(S(=O)(=O)c3ccccc3)ccc2O1 [*] | – | 4100 | – |
| CC1(C)Oc2ccc(C#N)cc2C(N2CCCC2=O)C1O (stereo not drawn) [cromakalim] | – | – | IC50 ([1]; putative potassium channel opener, read-out: relaxant activity IC50 in the first test): 600 to 900 nM; relaxant activity in the second test ([2]; 80 mM KCl, at concentrations as high as 30 μM): insignificant relaxant activity |
| CC1(C)CN(c2cccc[n+]2[O-])c2cc([N+](=O)[O-])ccc2O1 [@] | – | 74 | – |
